molecular target: T1, central CB1 receptors (Mus musculus, UniProt P47746); assay: Psychotropic activity: adverse cannabimimetic (tetrad) effects in mice; details: in vivo, FIG. 6 legend
T1 construct: from tissue; host or cells: whole animal (normal mice), CNS
Method: Many CB1 agonists are known to induce psychotropic associated “tetrad effects” due to central binding to CB receptors [Howlett, A. C. et al, International Union of Pharmacology. XXVII, Pharmacol. Rev. 2002, 54, 161-202]. Studies were undertaken to investigate whether the compounds of the present invention also bound to central CB1 receptors. This is assessed by measuring the ability of the compounds to induce sedation, ptosis, hypomotility, catalepsy and hypothermia in normal mice [Brooks, J. W. et al, Eur. J. Pharmacol. 2002, 439, 83-92], following i.v., i.p. and oral administration.

T1 sequence (P47746 whole entry): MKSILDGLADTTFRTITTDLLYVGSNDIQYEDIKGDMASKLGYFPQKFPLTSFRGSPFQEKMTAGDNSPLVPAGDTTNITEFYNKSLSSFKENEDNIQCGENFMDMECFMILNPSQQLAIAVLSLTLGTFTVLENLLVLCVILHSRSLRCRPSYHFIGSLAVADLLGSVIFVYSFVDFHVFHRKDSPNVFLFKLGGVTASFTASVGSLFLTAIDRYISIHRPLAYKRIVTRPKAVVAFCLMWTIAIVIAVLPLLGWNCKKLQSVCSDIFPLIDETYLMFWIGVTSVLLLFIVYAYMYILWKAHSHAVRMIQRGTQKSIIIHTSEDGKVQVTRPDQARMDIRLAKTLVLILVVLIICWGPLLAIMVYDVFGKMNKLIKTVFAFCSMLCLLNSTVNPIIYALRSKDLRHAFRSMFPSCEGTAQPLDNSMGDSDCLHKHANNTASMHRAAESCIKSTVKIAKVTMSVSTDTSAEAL

Row | Structure (SMILES) | adverse cannabimimetic effects
1 | CCCCCCC(C)(C)c1ccc(-c2cccc(O)c2)c(O)c1 [VSN13, 4-(1,1-Dimethylheptyl)-1,1′-biphenyl-2,3′-diol] | does not exhibit adverse cannabimimetic effects

molecular target: T2, CB1 receptors (Rattus norvegicus, UniProt P20272); assay: Radioligand binding assay: displacement of [3H]SR141716A from rat cerebellar homogenates; details: not given
T2 construct: cerebellar membranes (400 μg wet weight per tube) were thoroughly mixed in a final volume of 0.5 mL; from tissue; host or cells: rat cerebellum (Male Wistar rats), membrane homogenate
Method: SR141716A from rat cerebellar homogenates. […] (M).
Radioligand binding assays provide a simple measure of activity at the CB1 receptors. For functional activity, the vas deferens or cyclic 3′,5′-adenosine monophosphate (cAMP) assays described below are used. The assays are carried out with a protocol modified from the literature using the CB1 receptor antagonist [^3H] SR141716A (0.5 nM) in rat brain membranes. Male Wistar rats (150-200 g), which were allowed free access to food and water, were used. Briefly, animals were killed by cervical dislocation and cerebella dissected into ice-cold 0.25 M sucrose. Homogenates were prepared by suspension of cerebella in ice-cold 50 mM, pH 7.4 HEPES (assay) buffer using an Ultra-Turrax™ homogeniser. Homogenates were subsequently centrifuged at 45,000 rpm for 15 min at 4° C., and re-suspended in fresh ice-cold assay buffer to give a final concentration of 1 mg/mL wet weight. Compounds under test were dissolved in dimethyl sulfoxide (DMSO) and transferred to 14 mL polypropylene test tubes. [^3H] SR141617A {final concentration of approximately 0.5 nM prepared in assay buffer containing 0.1% v/v tris(2-butoxyethyl)phosphate} and cerebellar membranes (400 μg wet weight per tube) were thoroughly mixed in a final volume of 0.5 mL and incubated for 1 h at 37° C. The tubes were transferred to a Brandel filtration apparatus, 5 mL ice-cold assay buffer added, and the tube contents vacuum-aspirated through Whatman GF/C glass fibre filters. A further 5 mL of ice-cold wash buffer was added to tubes and the wash/vacuum cycle repeated a further three times. The filters were transferred to plastic Mini-PolyQ™ vials, Picofluor™ liquid scintillant added, and radioactivity (dpm) was quantified using a Beckman LS6000 Liquid Scintillation Counter. The concentrations of competing ligand (test compounds) to produce 50% displacement of the radioligand (IC50) from specific binding sites were computed using Origin™, by fitting total bound ligand (y-axis as dpm) against compound concentration (x-axis, log 10[x] as M) to the logistic equation y=a+b/[1+exp{−c(x−IC50)}]. Where a=lower asymptote, b=specific bound and c=slope function.

T2 sequence (P20272 whole entry): as the sequence (P47746 whole entry) above, with D95E counted along it

Row | Structure (SMILES) | IC50 [µM]
2 | CCCCCCC(C)(C)c1ccc(-c2cccc(CO)c2)c(O)c1 [VSN31, 4-(1,1-Dimethylheptyl)-3′-(hydroxymethyl)-1,1′-biphenyl-2-ol] | 1.6
3 | CCCCCCC(C)(C)c1ccc(-c2cccnc2)c(O)c1 [VSN26, 5-(1,1-Dimethylheptyl)-2-pyridin-3-yl phenol] | 3.6
4 | CCCCCCC(C)(C)c1ccc(-c2cccc(O)c2)c(O)c1 [VSN13, 4-(1,1-Dimethylheptyl)-1,1′-biphenyl-2,3′-diol] | 1.5
5 | CCCCCCC(C)(C)c1ccc(-c2ccncc2)c(O)c1 [VSN27, 5-(1,1-Dimethylheptyl)-2-pyridin-4-yl phenol] | 1.6
6 | CCCCCCC(C)(C)c1ccc(-c2cc(Cl)cc(Cl)c2)c(O)c1 [VSN28, 3′,5′-Dichloro-4-(1,1-dimethylheptyl)-1,1′-biphenyl-2-ol] | 2.2
7 | CCCCCCC(C)(C)c1ccc(-c2cc(C)cc(C)c2)c(O)c1 [VSN29, 3′,5′-Dimethyl-4-(1,1-dimethylheptyl)-1,1′-biphenyl-2-ol] | 0.2
8 | CCCCCCC(C)(C)c1ccc(-c2cccc(NC(C)=O)c2)c(O)c1 [VSN30, N-[4′-(1,1-dimethylheptyl)-2′-hydroxy-1,1′-biphenyl-3-yl]-acetamide] | 24.6

same assay, conditions: displacement of [3H]SR141716A (0.5 nM), rat cerebellar membranes; read-out: IC50

Row | Structure (SMILES) | IC50 [µM]
9 | CN(C)C(=O)CCCCC(C)(C)c1ccc(-c2cccc(O)c2)c(O)c1 [VSN32] | 0.5
